The values that follow come from US5969017A, “Methods of treating or preventing cardiac arrhythmia” (Merck & Co., Inc., priority 1997, dated 1999).

Common to all, as to assay type: cell-based
The target of experiment [1] is T1, IKr (Cavia porcellus, UniProt O08703).
T1 construct: Guinea pig ventricular myocytes were isolated; endogenous in cells; host or cells: isolated guinea pig ventricular myocytes
T1 sequence (O08703 1-1294): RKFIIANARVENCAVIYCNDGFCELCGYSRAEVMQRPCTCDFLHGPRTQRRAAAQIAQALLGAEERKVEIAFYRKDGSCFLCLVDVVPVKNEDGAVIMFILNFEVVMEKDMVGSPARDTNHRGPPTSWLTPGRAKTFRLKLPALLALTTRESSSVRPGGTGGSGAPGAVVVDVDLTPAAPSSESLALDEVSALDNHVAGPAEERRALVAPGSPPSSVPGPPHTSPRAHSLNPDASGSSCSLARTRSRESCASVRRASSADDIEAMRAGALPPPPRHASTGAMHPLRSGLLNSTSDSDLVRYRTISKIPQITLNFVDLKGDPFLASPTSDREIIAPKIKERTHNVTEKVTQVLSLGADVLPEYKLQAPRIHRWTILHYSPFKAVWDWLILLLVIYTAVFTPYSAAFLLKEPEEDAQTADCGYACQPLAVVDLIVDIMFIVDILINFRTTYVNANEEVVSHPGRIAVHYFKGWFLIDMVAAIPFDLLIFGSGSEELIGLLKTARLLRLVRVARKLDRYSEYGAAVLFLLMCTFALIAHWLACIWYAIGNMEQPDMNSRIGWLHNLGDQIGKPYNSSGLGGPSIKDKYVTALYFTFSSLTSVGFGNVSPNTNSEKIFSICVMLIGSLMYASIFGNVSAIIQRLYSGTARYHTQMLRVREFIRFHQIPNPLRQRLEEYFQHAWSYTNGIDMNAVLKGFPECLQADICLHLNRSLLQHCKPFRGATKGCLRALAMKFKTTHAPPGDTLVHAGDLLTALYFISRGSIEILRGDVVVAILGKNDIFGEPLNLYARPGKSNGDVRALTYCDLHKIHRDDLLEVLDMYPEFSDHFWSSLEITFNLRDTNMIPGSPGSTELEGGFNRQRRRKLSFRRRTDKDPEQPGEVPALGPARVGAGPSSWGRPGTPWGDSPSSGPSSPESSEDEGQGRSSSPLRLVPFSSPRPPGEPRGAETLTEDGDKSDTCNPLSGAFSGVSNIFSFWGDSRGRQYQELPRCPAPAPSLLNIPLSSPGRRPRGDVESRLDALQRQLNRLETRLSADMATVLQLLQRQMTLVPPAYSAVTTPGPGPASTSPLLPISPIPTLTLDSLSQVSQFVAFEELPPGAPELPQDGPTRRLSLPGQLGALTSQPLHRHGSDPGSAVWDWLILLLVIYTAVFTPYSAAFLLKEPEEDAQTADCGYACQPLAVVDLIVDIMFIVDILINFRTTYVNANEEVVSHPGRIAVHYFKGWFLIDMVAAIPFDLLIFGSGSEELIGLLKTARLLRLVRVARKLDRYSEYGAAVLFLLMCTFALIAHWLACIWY
Put plainly: Voltage clamp block of IKr in guinea pig ventricular myocytes. The settings on record: guinea pig ventricle. On the procedure:
(§1) D. Measurement of IKs IKr and IK1 in Guinea Pig Ventricular Myocytes.
(§2) Guinea pig ventricular myocytes were isolated using a modification of the procedure described by Mitra et al., Am. J. Physiol. 249:H1056-60 (1985). Excised hearts were perfused through the aorta (retrograde fashion) at a rate of 10 ml/min with oxygenated, warmed (37° C.) solutions described below. The heart was initially perfused for 7 minutes with a Tyrode's solution containing, in mM: 132 NaCl, 4 KCl, 1.2 MgCl2, 10 HEPES, 5 glucose, pH=7.2. The heart was then perfused with the same nominally Ca^2+ -free solution containing 150 units/ml Type II collagenase (Worthington) and 0.5 units/ml Type XIV protease (Sigma) for 8 minutes. This perfusate was followed by a Tyrode's solution contianing 0.2 mM CaCl2 (without enzymes) for 5 minutes. […]
(§3) The suction microelectrode technique described by Giles, W. R. and Shibata, E. F., "Voltage clamp of bull-frog cardiac pacemaker cells: a quantitative analysis of potassium currents", J. Physiol. […]
(§4) To record K^+ currents, the cells were bathed in a Ca^2+ -free Tyrode's solution containing 0.4 mM nisoldipine. […] Data was analyzed as % block from control membrane currents.
(§5) Nisoldipine was prepared as a 4 mM stock solution in polyethylne glycol 200. […] At the final concentrations used, neither polyethylene glycol 200 nor dimethyl sulfoxide had any effect on any of the measured membrane currents. […]

In experiment [2] the target is T2, IKs (Cavia porcellus, UniProt O70344).
T2 construct: Guinea pig ventricular myocytes were isolated; endogenous in cells; host or cells: isolated guinea pig ventricular myocytes
Put plainly: Voltage clamp block of IKs in guinea pig ventricular myocytes. As to conditions: guinea pig ventricle. On the procedure: as §1, §2, §3, §4, §5

Experiment [3] deals with IK1. Put plainly: Voltage clamp block of IK1 in guinea pig ventricular myocytes. As to conditions: 3 μM; guinea pig ventricle. On the procedure:
as §1, §2, §3, §4, §5

Each structure is given as a SMILES string.

T2 sequence (O70344 whole entry): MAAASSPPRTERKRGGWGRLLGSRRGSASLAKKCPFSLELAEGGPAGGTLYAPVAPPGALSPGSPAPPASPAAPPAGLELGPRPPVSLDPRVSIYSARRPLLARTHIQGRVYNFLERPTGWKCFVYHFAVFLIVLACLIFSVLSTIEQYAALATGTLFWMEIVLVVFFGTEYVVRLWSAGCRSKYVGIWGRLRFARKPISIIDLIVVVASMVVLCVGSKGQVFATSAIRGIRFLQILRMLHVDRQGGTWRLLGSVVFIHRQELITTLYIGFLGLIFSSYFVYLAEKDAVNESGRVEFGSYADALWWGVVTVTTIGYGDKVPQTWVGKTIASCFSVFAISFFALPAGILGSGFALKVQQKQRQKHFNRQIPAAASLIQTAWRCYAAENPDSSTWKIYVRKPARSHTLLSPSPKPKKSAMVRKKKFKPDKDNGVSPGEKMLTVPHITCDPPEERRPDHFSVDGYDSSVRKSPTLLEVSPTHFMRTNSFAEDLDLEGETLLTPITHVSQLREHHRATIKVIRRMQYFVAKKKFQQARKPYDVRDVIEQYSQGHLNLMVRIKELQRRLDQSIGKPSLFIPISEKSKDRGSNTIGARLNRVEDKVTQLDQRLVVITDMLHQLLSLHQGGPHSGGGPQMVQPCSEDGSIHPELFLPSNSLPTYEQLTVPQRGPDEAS
T2 sequence (Q60409 whole entry partner): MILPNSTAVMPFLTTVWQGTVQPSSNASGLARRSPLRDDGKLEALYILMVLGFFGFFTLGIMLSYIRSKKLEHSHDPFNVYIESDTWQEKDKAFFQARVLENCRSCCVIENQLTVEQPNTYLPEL

In general, inhibition refers to the relative decrease from the control value, in per cent. Take `COc1ccc(-n2nc(Sc3ccc(Cl)cc3)c(C)c(C#N)c2=O)cc1` [C, 6-(4-Chlorophenylthio)-2-(4-methoxyphenyl)-5-methyl-3-oxo-2,3-dihydropyridazine-4-carbonitrile]: the values for the inhibition at 3 µM in experiment [1] and in experiment [2] were 8.4% and 0%, respectively. Besides, the “% Block IK1” value in experiment [3] is 0%.
